Measurements from patent US10590116B2, “3-indolyl furanoids as inhibitors of matrix metalloproteinase-9 for prevention of gastric ulcer and other inflammatory diseases” (Council of Scientific & Industrial Research, priority 2017, dated 2020).

Assays:
[1] = Pharmacokinetic profiling in rat; assay type: in vivo, Sprague Dawley rats; conditions: single dose 250 mg/kg oral gavage, male rats, plasma
Experimental: Male sprague dawley rats (n=6) received a single dose of 250 mg/kg body weight compound 5 by oral gavage. Compound 5 levels in plasma were determined by HPLC. Values represent mean plasma levels.
Column chromatography was carried out using silica gel 100-200 mesh. Analytical thin-layer chromatography (TLC) was performed with silica gel 60 F254 aluminium sheets. ^1H NMR spectra were recorded on a Bruker DPX 300 MHz or Bruker DRX 600 MHz NMR instrument at ambient temperature in CDCl3, CD3OD or DMSO-d6. ^13C NMR spectra were recorded at 75 MHz or 150 MHz at ambient temperature. The chemical shifts were recorded in parts per million (ppm) with TMS as internal reference. All ^13C NMR spectra were recorded with complete proton decoupling. Mass spectral data refer to EIMS or ESIMS and are recorded in m/z unit. DI-EIMS were recorded on a GC-MS Shimadzu-QP5050A and ESIMS were done on a Waters® Micromass® Q-TOF Mass Spectrometer. Melting points are recorded on a SPAC-N SERVICE (India) melting point apparatus (Laboratory device) in open capillaries and are uncorrected. Elemental analyses were performed by Perkin-Elmer CHN/O analyzer model 2400, series II. HPLC analysis of plasma samples were performed on a Shimadzu Model SPD-M10Avp equipped with LC-10ATvp HPLC pump, Hamamatsu Deuterium Lamp type L6585 photodiode array detector. Chromatography was achieved using a Phenomenex Luna 5 μm C18 (2) 100 Å LC Column (150×4.6 mm I. D.) with Guard Cartridges C18 (4×3.0 mm). The mobile phase consisted of 15% water in acetonitrile, and solutes were eluted using a flow rate 1.0 mL/min. The column was re-equilibrated at initial conditions for 5 min before the next analysis. Analytical HPLC conditions were as follows: column, Pheomenex C18 (250 mm×4.6 mm, particle size 5 μm) with solvent combination of 0.5-1.0% TFA in water:acetonitrile in various ratios at a flow rate of 0.5-1.0 mL/min, detection at 254 nm. Purity of tested compounds was established by analytical reverse phase HPLC, confirming a purity of at least 95%. Unless otherwise stated, reagents were procured from commercial sources and were used without further purification.
In order to assess the time course of action and disposition of compound 5 in vivo, pharmacokinetic studies in Sprague Dawley rats were conducted. The curve was linear in the range investigated and the extraction efficiency was greater than 70%.

Myeloperoxidase (MPO) = assay: Myeloperoxidase assay in gastric tissue; assay type: in vivo; conditions: ulcerated mice, gastric tissue homogenate
Experimental: To understand the anti-inflammatory activity of compound 5, the inventors performed Myeloperoxidase (MPO) Assay in mouse of control, diseased and treated. Myeloperoxidase (MPO) activity in the mice gastric tissues was measured by calorimetric assay using guaiacol as the substrate. Briefly, gastric tissue homogenate prepared in 5 mM phosphate buffer was added to 1 mL of reaction buffer containing 0.5 mM H2O2 and 0.4 M guaiacol in 50 mM phosphate buffer, pH 7.4. The changes in the optical density per minute for tetraguaiacol were measured at 470 nm in a Shimadzu spectrophotometer. The results were expressed in units/gram gastric tissue (ε=26.6/mM/cm).
Myeloperoxidase (MPO) activity in the mouse gastric tissue homogenate was assayed colorimetrically using guaiacol and H2O2.

SMILES: COc1cccc2[nH]cc(-c3cc(-c4ccccc4)oc3-c3ccccc3)c12 [compound 5, 4-methoxy-3-(2,5-diphenylfuran-3-yl)-1H-indole]
- Cmax ([1]; Sprague-Dawley, rat): 104 µg/mL
- Tmax ([1]; Sprague-Dawley, rat): ~6 h
- half-life ([1]; Sprague-Dawley, rat): 7 h
- area under the curve [1]: 1273.8 µg·h/mL
- Myeloperoxidase (Myeloperoxidase (MPO)): 9.13±0.33 units/gram tissue
- Myeloperoxidase (Myeloperoxidase (MPO); listed as Compound 5): 9.13 ± 0.33 units/gram tissue
